Assays:
[1] = tested on: MOLM-13-luc.c4 (AML) human AML cells; assay: Antitumor efficacy and survival / increase in life span (ILS) in disseminated MOLM-13.luc.c4 AML model; type: in vivo, SCID beige mice; conditions: for tumor burden by BLI photon counts: 5 million cells, treatment from day 3, vs Vehicle-treated control mice (FIG. 1); for Median survival: vehicle control 20.5 days
Procedure: (§1) Female SCID beige mice (10/group), obtained from Charles River Laboratories (Wilmington, Del.) were used when they were approximately 8-12 weeks old and weighed approximately 20-25 grams. The health of the mice was assessed daily by gross observation and analyses of blood samples taken from sentinel animals housed on shared shelf racks. All animals were allowed to acclimate and recover from any shipping-related stress for a minimum of 72 hours prior to experimental use. Autoclaved water and irradiated food (5058-ms Pico Lab mouse chow, Purina Mills, Richmond, Ind.) were provided ad libitum, and the animals were maintained on a 12 hour light and dark cycle. Cages, bedding and water bottles were autoclaved before use and changed weekly. All animal experiments were conducted in accordance with the Guide for the Care and Use of Laboratory Animals, local regulations, and protocols approved by the Roche Animal Care and Use Committee in an AAALAC accredited facility.
Parental MOLM-13 human AML cells were stably transfected with Luc2 lentiviral particles for 24 hrs in the presence of Polybrene (8 ug/ml) and then selected in the presence of Blasticidin for 3 weeks. Subsequently, one clone was selected by single cell plating in the presence of 0.1 mg/mL G418 and was designated MOLM-13.luc.c4. The lentiviral Luc2 expression plasmid was constructed by incorporating Luc2 gene (Promega) in to pLOC lentiviral plasmid backbone (Thermo Fisher Scientific). Luc2 lentiviral particles were prepared by using Trans-Lentiviral Packaging System (Thermo Fisher Scientific) as recommended.
MOLM-13.luc.c4 was maintained with RPMI 1640 with L-glutamine (2 mM) media (GIBCO/Invitrogen, Carlsbad, Calif.) supplemented with 10% heat-inactivated Fetal Bovine Serum (HI-FBS; GIBCO/Invitrogen, Carlsbad, Calif.), and 1% 100 mM sodium pyruvate. Freshly dissociated MOLM13-Luc.c4 cells (1×106 or 5×106) suspended in Phosphate Buffered Saline (PBS) were then intravenously inoculated via the caudal tail vein into female SCID-beige mice.
It was then filtered thru a 0.22 micron filter into a septum sealed vial for intravenous administration. […] Stock cytarabine (Ara-C injection, 100 mg/ml) was diluted in sterile 0.9% sodium chloride to 44 mg/ml according to manufacturer's instructions and dosed at 200 mg/kg iv twice weekly.
Treatment duration was 3 weeks.
(§2) For increased life span (ILS) assessment, animal body weights were measured two to three times per week, and animals were monitored daily for any clinical signs of toxicity or excessive tumor burden (i.e. hind limb paralysis or morbidity). In addition, progression of disease was monitored by in vivo bioluminescent imaging (BLI) using IVIS® Spectrum system. For each BLI session, mice received 100 mg/kg D-luciferin (Caliper Life Sciences/Perkin-Elmer) via ip injections and were imaged at 20 min post luciferin injection at either a 5 s or a 10 s exposure time. Images were captured by the IVIS® Spectrum system and data were collected and analyzed with Living Image 4.2.0 software (Caliper Life Sciences, Hopkinton, Mass.). Total photon fluxes (ph/s) representing luciferase activity within each fixed region of interest (ROI) covering whole tumors of individual mice were determined. The actual images of mice are not disclosed herein.
Quantification of bioluminescence allowed for direct longitudinal comparison of tumor burden between treatment groups prior to surrogate death end points being reached. Tumor burden was graphically represented as the mean BLI photon flux+standard error of the mean (SEM), and median survival was determined utilizing Kaplan Meier survival analysis. Statistical analysis of comparisons between groups was analyzed by two-way ANOVA, and post-hoc Bonferroni test (GraphPad Prism, version 4.3). Differences between groups were considered to be significant when the probability value (p) was ≤0.05.

[2] = Ara-C 200 mg/kg 2x/week iv; 10 mice/group
Procedure: as §1, with “Cages, bedding and water bottles were autoclaved before use and changed weekly. All animal experiments were conducted in accordance with the Guide for the Care and Use of Laboratory Animals, local regulations, and protocols approved by the Roche Animal Care and Use Committee in an AAALAC accredited facility.” left out
as §2, with “For each BLI session, mice received 100 mg/kg D-luciferin (Caliper Life Sciences/Perkin-Elmer) via ip injections and were imaged at 20 min post luciferin injection at either a 5 s or a 10 s exposure time.” left out, “The actual images of mice are not disclosed herein.” left out

Molecule	tumor burden by BLI photon counts [1]	% ILS vs. Vehicle control ([1]; Cpd I-B 437 mg/kg q7d iv, p < 0.05 vs vehicle)	% ILS vs. Vehicle control ([1]; Cpd I-B 437 mg/kg q7d iv, p < 0.05 vs vehicle, listed as Cpd I-B)	Median survival ([1]; Cpd I-B 437 mg/kg q7d iv)	% ILS vs. Vehicle control ([1]; Ara-C 200 mg/kg 2x/wk iv)	Median survival ([1]; Ara-C 200 mg/kg 2x/wk iv)	monotherapy antitumor activity as assessed by tumor burden (BLI) or ILS [1]	monotherapy antitumor activity as assessed by tumor burden (BLI) or ILS ([1]; listed as Cytarabine (Ara-C))	Mortality [2]
4-{[(2R,3S,4R,5S)-3-(3-Chloro-2-fluoro-phenyl)-4-(4-chloro-2-fluoro-phenyl)-4-cyano-5-(2,2-dimethyl-propyl)-pyrrolidine-2-carbonyl]amino}-3-methoxy-benzoic acid 1-mPEG-carbonyloxy-ethyl ester (mPEG, average MW, ˜2200) [compound I-B]	significantly reduced photon counts	37%	*37%	28 days	–	–	–	–	–
Nc1ccn([C@@H]2O[C@H](CO)[C@@H](O)[C@@H]2O)c(=O)n1 [Ara-C, cytarabine]	no difference	–	–	–	0%	20 days	lack of monotherapy activity	lack of antitumor activity	0

— US9956243B2, “Combination treatment for acute myeloid leukemia (AML)” (Hoffmann-La Roche Inc., priority 2013, dated 2018)
